Reference: US20150374718A1, “Zhankuic Acid A and Analogs thereof and Their Use as an Anti-Inflammatory Agent” (National Cheng Kung University, priority 2014, published 2015)
Like-named read-outs stand apart in the source and are kept apart here.

System: LPS-induced TNF-α expression
Experiment: LPS-induced TNF-α expression in murine peritoneal macrophages (ELISA)
Format: cell-based
Settings: Mus musculus, Peritoneal macrophage
Method: C57BL/6 mice were injected intraperitoneally with 3% thioglycollate, and their peritoneal macrophages were collected 72 h later. Macrophages were cultured in DMEM supplemented with 10% FBS and 50 μg/mL gentamicin at 37° C. in a humidified atmosphere of 5% CO2. […] Cell lysates were subjected to SDS-PAGE for detection of COX2 and iNOS expression. The presence of nitrite (a metabolite of NO) in the culture medium was analyzed by the Griess assay (Sigma-Aldrich), as previously described (16).

[1] = 2 h, read-out: Inhibition of 2 h-TNF-α (%)
[2] = 4 h, read-out: Inhibition of 4 h-TNF-α (%)

Structure (SMILES) | inhibition at 10 µM [1] | inhibition at 10 µM [2]
C=C(CCC(C)C1CCC2C3=C(C(=O)C[C@@]21C)[C@@]1(C)CCC(=O)[C@@H](C)C1CC3=O)C(C)C(=O)O (stereo in doubt) [No. 1, Zhankuic acid A] | 42.4% | 85.6%
C=C(CC[C@@H](C)[C@H]1CC[C@H]2C3=C(C(=O)C[C@]12C)[C@@]1(C)CCC(=O)[C@@H](C)[C@@H]1CC3=O)C(C)C(=O)OC (stereo partly shown) [No. 2, Zhankuic acid A methyl ester] | 51.6% | 80.3%
C=C(CC[C@@H](C)[C@H]1CCC2C3=C(C(=O)C[C@@]21C)[C@@]1(C)CC[C@@H](O)[C@@H](C)C1CC3=O)C(C)C(=O)O (stereo partly shown) [No. 3, Zhankuic acid B] | 68.9% | 88.6%
C=C(CC[C@@H](C)[C@H]1CC[C@H]2C3=C(C(=O)[C@H](O)[C@]12C)[C@@]1(C)CC[C@@H](O)[C@@H](C)[C@@H]1CC3=O)C(C)C(=O)O (stereo partly shown) [No. 4, Zhankuic acid C] | 67.5% | 88.8%
C=C(CC[C@@H](C)[C@H]1CC[C@H]2C3=C(C(=O)[C@H](O)[C@]12C)[C@@]1(C)CC[C@@H](OC=O)[C@@H](C)[C@@H]1CC3=O)C(C)C(=O)O (stereo partly shown) [No. 5, Zhankuic acid C 3-O-formate] | 1.62% | 45.3%
C=C(CC[C@@H](C)[C@H]1CCC2C3=C(C(=O)C[C@@]21C)[C@@]1(C)CCC(=O)[C@@H](C)C1CC3=O)C(C)C(=O)OCC (stereo partly shown) [No. 6, Zhankuic acid D] | 67.1% | 54.8%
C=C(CC[C@@H](C)[C@H]1CC[C@H]2C3=C(C(=O)C[C@]12C)[C@@]1(C)CCC(=O)[C@@H](C)[C@@H]1CC3)C(C)C(=O)O (stereo partly shown) [No. 7, Antcin A] | 40.6% | 90.7%
C=C(CC[C@@H](C)[C@H]1CCC2C3=C(C(=O)C[C@@]21C)[C@@]1(C)CCC(=O)[C@@H](C)C1CC3)C(C)C(=O)OC (stereo partly shown) [No. 8, Antcin A methyl ester] | 19.4% | 85.2%
C=C(CC[C@@H](C)[C@H]1CCC2C3=C(C(=O)C[C@@]21C)[C@@]1(C)CCC(=O)[C@@H](C)C1C[C@@H]3O)C(C)C(=O)O (stereo partly shown) [No. 9, Antcin C] | 43.6% | 43.1%
C=C(CC[C@@H](C)[C@H]1CC[C@H]2C3=C(C(=O)C[C@]12C)[C@@]1(C)CC[C@@H](O)[C@](C)(O)[C@@H]1C[C@@H]3O)C(C)C(=O)O (stereo partly shown) [No. 10, Antcin K] | 49.4% | 88.5%
C=C(CC[C@@H](C)[C@H]1CC[C@H]2C3=C(C(=O)[C@H](O)[C@]12C)[C@@]1(C)CC[C@@H](OC=O)[C@@H](C)[C@@H]1CC3)C(C)C(=O)O (stereo partly shown) [No. 11, Antcin M 3-O-formate] | < 0% | 88.3%
C=C(CC[C@@H](C)[C@H]1CC[C@H]2C3=C(C(=O)[C@H](O)[C@]12C)[C@@]1(C)CC[C@@H](O)[C@@H](C)C1C[C@@H]3O)C(C)C(=O)O (stereo partly shown) [No. 12, Camphoratin A] | 22.8% | 29.9%
C=C(CC[C@@H](C)[C@H]1CC[C@H]2C3=C(C(=O)C[C@]12C)[C@@]1(C)CC[C@@H](O)[C@@H](C)C1C[C@@H]3O)C(C)C(=O)O (stereo partly shown) [No. 13, Camphoratin B] | 40.7% | 87%
C=C(CC[C@@H](C)[C@H]1CC[C@@]2(O)C3=C(C(=O)C[C@]12C)[C@@]1(C)CCC(=O)[C@@H](C)C1C[C@@H]3O)C(C)C(=O)O (stereo partly shown) [No. 14, Camphoratin D] | 65.8% | 81.7%
C=C(CC[C@@H](C)[C@H]1CCC2C3=C(C(=O)C[C@@]21C)[C@@]1(C)CC[C@@H](O)[C@@H](C)C1CC3=O)C(C)C(=O)OC (stereo partly shown) [No. 15, Camphoratin E] | 78% | 89.4%
C=C(CC[C@@H](C)[C@H]1CCC2C3=C(C(=O)C[C@@]21C)[C@@]1(C)CCC(=O)[C@@H](C)C1C[C@@H]3O)C(C)C(=O)OC (stereo partly shown) [No. 16, Camphoratin F] | 38.2% | 80.2%
C=C(CC[C@@H](C)[C@H]1CCC2C3=C(C(=O)C[C@@]21C)[C@@]1(C)CCC(=O)[C@@H](C)C1C[C@H]3O)C(C)C(=O)O (stereo partly shown) [No. 17, Camphoratin G] | 68.8% | 22.5%
C=C(CC[C@@H](C)[C@H]1CC[C@@H]2C3=C(C(=O)C[C@@]21C)[C@@]1(C)CCC(=O)[C@@H](C)C1CC3)C(C)C(=O)OC (stereo partly shown) [No. 19, Camphoratin J] | 73.4% | 90.2%
CC(=O)CC[C@@H](C)[C@H]1CCC2C3=C(C(=O)C[C@@]21C)[C@@]1(C)CCC(=O)[C@@H](C)C1CC3=O (stereo partly shown) [No. 21, Camphoratin L] | 73.9% | 30.6%
C=C(CC[C@@H](C)[C@H]1CCC2C3=C(C(=O)[C@H](O)[C@@]21C)[C@@]1(C)CCC(=O)[C@@H](C)C1CC3=O)C(C)C(=O)OC (stereo partly shown) [No. 22, Camphoratin N] | 58.3% | 89%
CC(C)[C@@H](C)/C=C/[C@@H](C)[C@H]1CC[C@@H]2[C@]1(C)CC[C@H]1[C@]23C=C[C@]2(C[C@@H](O)CC[C@]12C)OO3 [No. 25, Ergosterol peroxide] | < 0% | < 0%
C=C(CC[C@@H](C)[C@H]1CC[C@H]2C3=C(C(=O)C[C@]12C)[C@@]1(C)CCC(=O)[C@@H](C)[C@@H]1CC3)C(C)C(=O)OC (stereo partly drawn) [No. 26, Methyl-4α-methylergost-8,24(28)-diene-3,11-dion-26-oate] | 49.3% | < 0%
C=C(CC[C@@H](C)[C@H]1CC[C@H]2C3=C(C(=O)[C@H](O)[C@]12C)[C@@]1(C)CC[C@@H](O)[C@@H](C)[C@@H]1CC3=O)C(C)C(=O)OC (stereo partly shown) [No. 27, Methyl antcinate H] | 79.8% | 91.5%
